Measurements: US20250388571A1, “AMP-ACTIVATED PROTEIN KINASE MODULATOR COMPOUNDS AND USES THEREOF” (Biolexis Therapeutics, Inc., priority 2024, published 2025)
Entries after “also recorded” stand apart in the source; their conditions may differ.

System: Human white preadipocyte (HWP) cells
Experiment: Glucose uptake assay, human white preadipocyte cells
Format: cell-based
Procedure: (§1) FIGS. 5-8 show results for glucose update assays in Human white preadipocyte (HWP) cells (Promocell, cat. No. C-12735) when treated with compound I-11 (FIG. 5), compound I-7 (FIG. 6), MK-8722 (FIG. 7), and PF-06409577 (FIG. 8). HWP cells (subcutaneous upper arm of obese patient) were starved for 3 hours in DMEM without FBS, treated with the components noted above in […] DMEM without FBS/glucose for 1 hour, and glucose uptake was detected using a glucose uptake kit (Promega). […] The bars show (from left to right) concentrations of 100 μM, 33 μM, 11 μM, 3.7 μM, 1.23 μM, 0.41 μM, 0.14 μM, 0.045 μM, 0.015 μM, 0.005 μM, 0 μM, and insulin.
as §1, with “9-12” for “5-8”, “9),” for “5),”, “10),” for “6),”, “11),” for “7),”, “12).” for “8).”, “(abdomen cells)” for “(subcutaneous upper arm of obese patient)”
Human skeletal myoblasts were obtained (Thermofisher; BYU) and cultured in DMEM/F12 medium with 10% FBS. For differentiation, 2% horse serum low glucose DMEM medium was employed for 72 hours. Human cardiomyocytes cells (HCM cells; Promocell) were cultured in myocyte growth medium (Promocell). Human preadipocyte HWP-c cells (Promocell) were obtained from upper arm of diabetic II donor. Human preadipocyte HWP-c cells (Promocell) were obtained from abdomen of diabetic II donor. For differentiating human preadipocytes, cells were cultured in preadipocyte growth medium to total confluency stage. The growth medium was replaced with preadipocyte differentiation medium for 72 hours, then changed to PromoCell adipocyte nutrition medium to complete the differentiation process. THLE-2 cells were cultured in BEGM from Lonza/Clonetics Corporation, Walkersville, MD 21793 (BEGM Bullet Kit; CC3170). HepG2, L6 and C2Cl2 cells were cultured in EMEM medium.
After differentiation myoblasts, preadipocyte cells were starved by removing the medium and adding 100 μL DMEM without serum. The medium was then replaced with 100 μL DMEM±1 μM insulin at indicated concentration of representative compounds without serum or glucose. The cells were then incubated for 1 hour at 37° C. in 5% CO2. The cells were then removed from the medium and 50 μL of 0.1 mM 2DG in PBS was added. Cells were incubated for 30 minutes at 25° C. 25 μL of Stop Buffer was added and samples were mixed. 25 μL of Neutralization Buffer was then added and mixed. 100 μL of 2DG6P Detection Reagent was then added and mixed. Samples were then incubated for 1 hour at 25° C. Luminescence was then recorded with 0.3-1 second integration on a luminometer.

O=c1[nH]c(-c2c[nH]c3cc(F)c(-c4ccc(C5(O)CCC5)cc4)c(F)c23)no1 [Compound I-11, 3-(4,6-difluoro-5-(4-(1-hydroxycyclobutyl)phenyl)-1H-indol-3-yl)-1,2,4-oxadiazol-5(4H)-one]
dose dependence of glucose uptake (printed: activates insulin) (HWP cells, subcutaneous upper arm of obese patient, 100 μM to 0.005 μM, 1 hour): dose dependent manner
glucose uptake (human adipocyte cells / HWP-c cells, donor site not stated): induced glucose uptake; also recorded: dosage-dependent manner
